pIC50: −log10 of the molar value. Calls of active or inactive are those of the source. The calls are words filed in the database; no cut-off is given here.
Key:
[1] = target: DNA topoisomerase 2-alpha (Homo sapiens, UniProt P11388); assay: Inhibition of human topoisomerase 2alpha-mediated kinetoplast DNA decatenation after 60 mins by ethidium bromide staining based agarose gel electrophoresis
Homo sapiens [2] = species: Homo sapiens; assay: Binding affinity to human telomeric 22 G-quadruplex DNA assessed as compound concentration required for 30% displacement of thiazole orange from telomeric 22 G-quadruplex DNA by fluorescent intercalator displacement assay
[3] = Binding affinity to cKit G-quadruplex DNA (unknown origin) assessed as compound concentration required for 30% displacement of thiazole orange from cKit G-quadruplex DNA by fluorescent intercalator displacement assay
[4] = Binding affinity to double stranded DNA (unknown origin) assessed as compound concentration required for 30% displacement of thiazole orange from double stranded DNA by fluorescent intercalator displacement assay
MCF7 [5] = assay: Cytotoxicity against human MCF7 cells after 72 hrs by MTT assay; type: functional, cell-based; details: MCF7, 72 h
Homo sapiens [6] = species: Homo sapiens; assay: Binding affinity to 5'-dabcyl/3'-fluorescein labeled human telomeric sequence G-quadruplex DNA assessed as change in melting temperature at 10 uM by fluorescence assay
[7] = Inhibition of Escherichia coli DNA topoisomerase 4 decatenation activity using kinetoplast DNA as substrate after 60 mins by ethidium bromide staining based agarose gel electrophoresis
HeLa [8] = assay: Cytotoxicity against human HeLa cells after 72 hrs by MTT assay; type: functional, cell-based
Escherichia coli [9] = assay: Binding affinity to Escherichia coli supercoiled pBR322 DNA assessed as DNA intercalation by measuring DNA unwinding at 100 uM measured after 1 hr by ethidium bromide staining based agarose gel electrophoresis
[10] = Binding affinity to 5'-dabcyl/3'-fluorescein labeled cKit G-quadruplex DNA (unknown origin) assessed as change in melting temperature at 10 uM by fluorescence assay
[11] = Binding affinity to 5'-dabcyl/3'-fluorescein labeled double stranded DNA (unknown origin) assessed as change in melting temperature at 10 uM by fluorescence assay
Escherichia coli [12] = assay: Binding affinity to Escherichia coli supercoiled pBR322 DNA assessed as DNA intercalation by measuring DNA unwinding up to 100 uM measured after 1 hr by ethidium bromide staining based agarose gel electrophoresis
MCF7 [13] = assay: Potency index, ratio of ametantrone IC50 to compound IC50 for human MCF7 cells; type: functional
HeLa [14] = assay: Potency index, ratio of ametantrone IC50 to compound IC50 for human HeLa cells; type: functional
Escherichia coli [15] = assay: Binding affinity to Escherichia coli supercoiled pBR322 DNA assessed as DNA intercalation by measuring DNA unwinding at 10 uM measured after 1 hr by ethidium bromide staining based agarose gel electrophoresis
Escherichia coli [16] = assay: Inhibition of Escherichia coli DNA topoisomerase 4 decatenation activity up to 100 uM using kinetoplast DNA as substrate after 60 mins by ethidium bromide staining based agarose gel electrophoresis
Escherichia coli [17] = assay: Binding affinity to Escherichia coli supercoiled pBR322 DNA assessed as DNA intercalation by measuring DNA unwinding at 0.1 to 10 uM measured after 1 hr by ethidium bromide staining based agarose gel electrophoresis

Chain of DNA topoisomerase 2-alpha (P11388 whole entry): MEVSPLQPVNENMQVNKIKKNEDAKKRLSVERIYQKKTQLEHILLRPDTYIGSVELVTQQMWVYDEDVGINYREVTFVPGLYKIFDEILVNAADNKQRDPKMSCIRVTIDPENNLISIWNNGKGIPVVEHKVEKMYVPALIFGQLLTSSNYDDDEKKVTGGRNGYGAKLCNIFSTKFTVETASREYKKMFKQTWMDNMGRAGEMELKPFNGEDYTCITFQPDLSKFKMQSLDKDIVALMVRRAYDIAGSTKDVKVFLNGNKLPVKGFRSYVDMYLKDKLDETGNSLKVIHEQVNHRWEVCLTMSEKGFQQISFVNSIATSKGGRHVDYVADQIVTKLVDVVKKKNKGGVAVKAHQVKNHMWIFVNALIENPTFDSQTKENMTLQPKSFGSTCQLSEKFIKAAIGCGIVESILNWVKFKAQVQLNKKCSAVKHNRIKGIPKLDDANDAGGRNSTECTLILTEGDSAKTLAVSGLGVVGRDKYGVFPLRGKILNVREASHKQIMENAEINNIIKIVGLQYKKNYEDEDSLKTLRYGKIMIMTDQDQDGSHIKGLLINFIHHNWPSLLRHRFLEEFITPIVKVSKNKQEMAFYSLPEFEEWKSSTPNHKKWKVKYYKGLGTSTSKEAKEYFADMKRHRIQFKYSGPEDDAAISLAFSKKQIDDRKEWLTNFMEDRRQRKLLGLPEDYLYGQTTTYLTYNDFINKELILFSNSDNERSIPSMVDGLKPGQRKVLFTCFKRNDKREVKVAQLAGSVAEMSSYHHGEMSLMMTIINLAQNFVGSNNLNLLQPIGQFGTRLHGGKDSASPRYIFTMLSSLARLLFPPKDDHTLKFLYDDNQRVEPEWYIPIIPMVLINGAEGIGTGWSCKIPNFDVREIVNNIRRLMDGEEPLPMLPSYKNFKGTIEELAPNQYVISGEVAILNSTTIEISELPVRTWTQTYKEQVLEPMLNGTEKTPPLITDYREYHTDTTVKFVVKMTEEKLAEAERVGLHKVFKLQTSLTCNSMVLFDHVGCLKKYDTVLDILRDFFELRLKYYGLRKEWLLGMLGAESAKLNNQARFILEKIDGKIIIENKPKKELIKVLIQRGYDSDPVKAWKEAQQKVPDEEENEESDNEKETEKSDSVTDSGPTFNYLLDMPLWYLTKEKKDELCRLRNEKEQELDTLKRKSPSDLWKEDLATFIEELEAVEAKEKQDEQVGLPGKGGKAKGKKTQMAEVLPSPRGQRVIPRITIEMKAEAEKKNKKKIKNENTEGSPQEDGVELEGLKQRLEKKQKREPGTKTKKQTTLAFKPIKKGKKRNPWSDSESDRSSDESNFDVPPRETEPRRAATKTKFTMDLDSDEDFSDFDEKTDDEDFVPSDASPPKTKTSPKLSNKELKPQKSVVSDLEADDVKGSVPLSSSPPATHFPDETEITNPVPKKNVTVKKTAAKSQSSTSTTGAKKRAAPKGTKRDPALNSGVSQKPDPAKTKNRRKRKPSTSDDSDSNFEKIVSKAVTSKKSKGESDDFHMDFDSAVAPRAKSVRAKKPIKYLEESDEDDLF

Structure (SMILES) | pIC50 [1] | Activity (Homo sapiens [2]) | Activity [3] | Activity [4] | ΔTm (Homo sapiens [6]) | pIC50 [7] | ΔTm [10] | ΔTm [11] | pIC50 (MCF7 [5]) | pIC50 (HeLa [8]) | other results
CN(C)CCCOc1ccc2ccc3c4c(nnc3c2c1)-c1ccccc1C4=O | 4.54 | 2.43 µM | 0.95 µM | 4.06 µM | 20.8 °C | < 4.00 | 23.1 °C | 1.96 °C | 5.01 | 5.55 | Activity (Escherichia coli [9]): Active
CO[C@@H]1[C@@H](OC(N)=O)[C@@H](O)[C@H](Oc2ccc3c(O)c(NC(=O)c4ccc(O)c(CC=C(C)C)c4)c(=O)oc3c2C)OC1(C)C [NOVOBIOCIN] | – | – | – | – | – | 4.20 | – | – | – | – | –
CN(C)CCCn1c(=O)c2nc3ccccc3nc2c2ccccc21 | – | inactive | 3.57 µM | 10.9 µM | – | – | – | – | – | – | –
O=C1c2ccccc2-c2nnc3ccccc3c21 | < 4.00 | – | – | – | – | < 4.00 | – | – | 6.09 | 6.24 | Activity (Escherichia coli [12]): inactive
CN(C)CCCOc1ccc2c(ccc3c4c(nnc32)-c2ccccc2C4=O)c1 | 4.28 | 4.75 µM | 1.5 µM | 7.81 µM | 16.1 °C | < 4.00 | 19.2 °C | 0.85 °C | 5.17 | 5.52 | Activity (Escherichia coli [9]): Active
COc1ccc2cc3[n+](cc2c1OC)CCc1cc2c(cc1-3)OCO2 | – | > 10 µM | > 10 µM | – | 9.68 °C | – | 10.3 °C | 0.34 °C | – | – | –
O=C1c2ccccc2C(=O)c2c(NCCNCCO)ccc(NCCNCCO)c21 [AMETANTRONE] | – | – | – | – | – | – | – | – | 6.29 | 6.05 | –
COc1cccc2c1C(=O)c1c(O)c3c(c(O)c1C2=O)C[C@@](O)(C(=O)CO)C[C@@H]3O[C@H]1C[C@H](N)[C@H](O)[C@H](C)O1 | – | – | – | – | – | – | – | – | – | – | Activity (Escherichia coli [17]): Active

The next lines start with results.

pIC50 [1] | Activity (Homo sapiens [2]) | Activity [3] | Activity [4] | ΔTm (Homo sapiens [6]) | pIC50 [7] | ΔTm [10] | ΔTm [11] | Structure (SMILES) | pIC50 (MCF7 [5]) | pIC50 (HeLa [8]) | other results
– | – | – | – | 6.63 °C | – | 5.42 °C | 0.9 °C | O=C(NCCCCN1CCCCC1)c1ccc2nnc3c(c2c1)C(=O)c1ccccc1-3 | – | – | –
5.31 | – | – | – | 7.91 °C | < 4.00 | 8.5 °C | 1.95 °C | CN(C)CCCNC(=O)c1ccc2nnc3c(c2c1)C(=O)c1ccccc1-3 | 6.77 | 6.57 | Activity (Escherichia coli [12]): inactive
– | – | – | – | 4.82 °C | – | 4.37 °C | – | O=C(NCCCCN1CCOCC1)c1ccc2nnc3c(c2c1)C(=O)c1ccccc1-3 | – | – | deltaTm [11]: inactive
< 4.00 | inactive | 2.08 µM | 16 µM | 5.69 °C | < 4.00 | 9.18 °C | – | CN(C)CCOc1ccc2c(ccc3c4c(nnc32)-c2ccccc2C4=O)c1 | < 4.00 | < 4.00 | Activity (Escherichia coli [9]): Active; deltaTm [11]: inactive
4.87 | – | – | – | 5.95 °C | < 4.00 | 6.8 °C | 1.19 °C | CN(C)CCNC(=O)c1ccc2nnc3c(c2c1)C(=O)c1ccccc1-3 | 6.55 | 6.46 | Activity (Escherichia coli [12]): inactive
– | – | – | – | 3.77 °C | – | 3.01 °C | 0.53 °C | CCN(CC)CCCCNC(=O)c1ccc2nnc3c(c2c1)C(=O)c1ccccc1-3 | – | – | –
5.15 | – | – | – | 9.35 °C | < 4.00 | 12.4 °C | 2.7 °C | CN(C)CCCCNC(=O)c1ccc2nnc3c(c2c1)C(=O)c1ccccc1-3 | 7.07 | 7.35 | Activity (Escherichia coli [12]): inactive; Ratio IC50 (MCF7 [13]): 6; Ratio IC50 (HeLa [14]): 20
5.26 | 0.52 µM | 0.47 µM | 1.36 µM | 25.6 °C | – | 28 °C | 5.27 °C | CN(C)CCOc1ccc2ccc3c4c(nnc3c2c1)-c1ccccc1C4=O | 5.43 | 5.22 | Activity (Escherichia coli [15]): Active; inhibition (Escherichia coli [16]): inactive

— ChEMBL document CHEMBL4017447, “Indenocinnoline derivatives as G-quadruplex binders, topoisomerase IIα inhibitors and antiproliferative agents” (Bioorg Med Chem, 2017)
